What is called residual activity is the signal under treatment as a percentage of the control signal.

Sequence of EPHA6 (human) (Q9UF33 whole entry, looked up): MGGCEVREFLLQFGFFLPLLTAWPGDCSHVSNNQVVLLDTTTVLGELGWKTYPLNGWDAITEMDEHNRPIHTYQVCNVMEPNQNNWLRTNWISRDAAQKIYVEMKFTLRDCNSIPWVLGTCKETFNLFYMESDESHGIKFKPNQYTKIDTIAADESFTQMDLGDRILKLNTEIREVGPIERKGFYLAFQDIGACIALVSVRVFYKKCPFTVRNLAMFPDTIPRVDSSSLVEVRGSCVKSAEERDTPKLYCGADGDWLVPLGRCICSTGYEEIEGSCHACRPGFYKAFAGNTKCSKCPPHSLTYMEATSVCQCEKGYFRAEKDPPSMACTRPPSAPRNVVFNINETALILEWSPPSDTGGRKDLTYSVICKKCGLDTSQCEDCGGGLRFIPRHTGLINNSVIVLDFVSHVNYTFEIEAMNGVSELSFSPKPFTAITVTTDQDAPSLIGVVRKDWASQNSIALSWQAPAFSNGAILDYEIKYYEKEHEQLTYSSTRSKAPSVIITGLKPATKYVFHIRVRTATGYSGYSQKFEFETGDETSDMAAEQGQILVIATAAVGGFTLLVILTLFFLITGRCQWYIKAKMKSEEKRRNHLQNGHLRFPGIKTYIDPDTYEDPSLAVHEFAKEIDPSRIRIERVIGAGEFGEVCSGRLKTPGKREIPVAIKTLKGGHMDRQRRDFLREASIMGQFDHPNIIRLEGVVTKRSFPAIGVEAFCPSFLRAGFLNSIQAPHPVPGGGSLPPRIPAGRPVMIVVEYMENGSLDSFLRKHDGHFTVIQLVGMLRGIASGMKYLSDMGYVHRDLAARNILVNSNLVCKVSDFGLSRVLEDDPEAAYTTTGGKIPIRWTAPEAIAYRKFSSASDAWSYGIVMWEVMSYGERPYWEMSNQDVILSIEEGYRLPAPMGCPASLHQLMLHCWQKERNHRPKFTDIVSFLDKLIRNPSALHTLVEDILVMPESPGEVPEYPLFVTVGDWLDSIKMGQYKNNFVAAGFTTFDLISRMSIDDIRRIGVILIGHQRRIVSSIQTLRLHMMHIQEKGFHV

In one assay the target is MAPK13 (human) (UniProt O15264). The assay can be described thus: radiometric filter-binding kinase assay, Kinase HotSpot. The following applies: compound 0.5 µM; ATP 10 µM.
In the case of `O=C1NC(=O)/C(=C/c2ccc3c(c2)OC(F)(F)O3)S1`, the residual activity is 101%.

Regarding `N#CC(C#N)=C(N)/C(C#N)=C/c1ccc(O)cc1`, the residual activity is 103%.

On to `COc1cc2ncnc(Nc3cccc(Cl)c3)c2cc1OC`, for which the residual activity was 99.8%.

The target of another assay is ULK1 (human) (UniProt O75385). Described as above. The note with it: compound 0.5 µM; ATP 10 µM.
Sequence of ULK1 (human) (O75385 whole entry, looked up): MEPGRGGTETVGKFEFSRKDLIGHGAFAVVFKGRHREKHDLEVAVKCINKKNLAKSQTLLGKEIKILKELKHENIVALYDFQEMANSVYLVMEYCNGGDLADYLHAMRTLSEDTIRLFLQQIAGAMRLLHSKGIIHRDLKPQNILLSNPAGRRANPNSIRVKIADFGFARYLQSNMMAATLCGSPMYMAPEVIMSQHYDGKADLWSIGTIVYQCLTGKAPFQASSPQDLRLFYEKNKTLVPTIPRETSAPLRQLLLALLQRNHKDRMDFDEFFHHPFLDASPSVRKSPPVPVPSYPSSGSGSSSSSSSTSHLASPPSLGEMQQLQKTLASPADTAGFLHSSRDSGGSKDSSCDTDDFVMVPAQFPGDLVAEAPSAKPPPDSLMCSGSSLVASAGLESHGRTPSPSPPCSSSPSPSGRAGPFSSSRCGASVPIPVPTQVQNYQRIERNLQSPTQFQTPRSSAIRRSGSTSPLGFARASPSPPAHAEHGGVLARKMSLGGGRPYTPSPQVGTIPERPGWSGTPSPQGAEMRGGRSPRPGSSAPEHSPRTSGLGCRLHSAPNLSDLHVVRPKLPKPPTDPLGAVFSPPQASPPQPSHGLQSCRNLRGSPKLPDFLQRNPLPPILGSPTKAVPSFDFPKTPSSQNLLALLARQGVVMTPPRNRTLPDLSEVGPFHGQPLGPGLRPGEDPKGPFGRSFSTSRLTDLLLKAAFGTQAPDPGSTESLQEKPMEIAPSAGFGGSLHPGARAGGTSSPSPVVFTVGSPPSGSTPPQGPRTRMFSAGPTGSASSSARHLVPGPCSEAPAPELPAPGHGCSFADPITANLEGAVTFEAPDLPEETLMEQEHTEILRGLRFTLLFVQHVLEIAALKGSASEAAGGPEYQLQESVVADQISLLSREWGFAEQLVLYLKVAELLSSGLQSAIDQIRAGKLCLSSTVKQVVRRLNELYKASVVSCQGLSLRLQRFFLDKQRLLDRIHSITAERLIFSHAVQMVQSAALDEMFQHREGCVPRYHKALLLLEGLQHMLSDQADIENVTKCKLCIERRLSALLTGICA
With `O=C1NC(=O)/C(=C/c2ccc3c(c2)OC(F)(F)O3)S1`, the residual activity came out at 100%.

For `N#CC(C#N)=C(N)/C(C#N)=C/c1ccc(O)cc1`, the residual activity is 89.3%.

As to `COc1cc2ncnc(Nc3cccc(Cl)c3)c2cc1OC`, the residual activity worked out at 84.7%.

The next assay deals with PAK7 (human) (UniProt Q9P286). Described as above. The note with it: compound 0.5 µM; ATP 10 µM.
Sequence of PAK7 (human) (Q9P286 whole entry, looked up): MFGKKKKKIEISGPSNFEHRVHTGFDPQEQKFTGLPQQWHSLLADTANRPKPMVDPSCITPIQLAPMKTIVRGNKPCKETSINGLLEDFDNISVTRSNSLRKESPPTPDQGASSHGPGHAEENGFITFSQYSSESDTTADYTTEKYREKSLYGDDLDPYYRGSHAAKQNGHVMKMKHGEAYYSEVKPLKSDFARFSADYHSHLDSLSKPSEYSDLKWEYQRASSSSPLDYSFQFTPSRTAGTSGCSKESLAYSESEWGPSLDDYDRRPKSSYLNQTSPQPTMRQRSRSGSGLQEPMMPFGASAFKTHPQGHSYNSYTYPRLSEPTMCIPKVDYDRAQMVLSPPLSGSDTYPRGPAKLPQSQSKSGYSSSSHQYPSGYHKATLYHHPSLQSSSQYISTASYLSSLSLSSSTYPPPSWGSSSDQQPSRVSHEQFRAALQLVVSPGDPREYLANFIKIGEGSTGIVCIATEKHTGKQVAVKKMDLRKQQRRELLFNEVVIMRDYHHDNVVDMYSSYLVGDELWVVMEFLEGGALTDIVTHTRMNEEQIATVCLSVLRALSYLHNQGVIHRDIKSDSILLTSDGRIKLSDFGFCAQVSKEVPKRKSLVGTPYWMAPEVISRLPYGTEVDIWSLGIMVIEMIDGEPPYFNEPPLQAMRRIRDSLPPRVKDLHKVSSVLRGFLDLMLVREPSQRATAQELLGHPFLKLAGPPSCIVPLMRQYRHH
Consider `O=C1NC(=O)/C(=C/c2ccc3c(c2)OC(F)(F)O3)S1`, for which the residual activity came to 93%.

As to `N#CC(C#N)=C(N)/C(C#N)=C/c1ccc(O)cc1`, the residual activity was determined as 94.5%.

For the compound `COc1cc2ncnc(Nc3cccc(Cl)c3)c2cc1OC`, the residual activity stood at 83%.

Another assay deals with ABL2 (human) (UniProt P42684). The assay is described as above. The following applies: compound 0.5 µM; ATP 10 µM.
For the compound `O=C1NC(=O)/C(=C/c2ccc3c(c2)OC(F)(F)O3)S1`, the residual activity was determined as 96%.

With `N#CC(C#N)=C(N)/C(C#N)=C/c1ccc(O)cc1`, the residual activity was 94.9%.

In the case of `COc1cc2ncnc(Nc3cccc(Cl)c3)c2cc1OC`, the residual activity was found to be 52.6%.

Another assay addresses EPHA6 (human) (UniProt Q9UF33). Described as above. The note with it: compound 0.5 µM; ATP 10 µM.
Take `O=C1NC(=O)/C(=C/c2ccc3c(c2)OC(F)(F)O3)S1`: the residual activity is 83.1%.

Turning to `N#CC(C#N)=C(N)/C(C#N)=C/c1ccc(O)cc1`, the residual activity worked out at 98.6%.

On to `COc1cc2ncnc(Nc3cccc(Cl)c3)c2cc1OC`, for which the residual activity is 27.8%.

A further assay deals with FGR (human) (UniProt P09769). The assay is described as above. The note with it: compound 0.5 µM; ATP 10 µM.
As for `O=C1NC(=O)/C(=C/c2ccc3c(c2)OC(F)(F)O3)S1`, the residual activity is 95.8%.

As to `N#CC(C#N)=C(N)/C(C#N)=C/c1ccc(O)cc1`, the residual activity was 98.7%.

Take `COc1cc2ncnc(Nc3cccc(Cl)c3)c2cc1OC`: the residual activity amounted to 75.3%.

In a further assay the target is HCK (human) (UniProt P08631). Described as above. The note with it: compound 0.5 µM; ATP 10 µM.
`O=C1NC(=O)/C(=C/c2ccc3c(c2)OC(F)(F)O3)S1`: the residual activity is 89.8%.

Consider `N#CC(C#N)=C(N)/C(C#N)=C/c1ccc(O)cc1`, for which the residual activity came out at 98.6%.

For `COc1cc2ncnc(Nc3cccc(Cl)c3)c2cc1OC`, the residual activity came out at 61.8%.

In the next assay the target is CSNK1D (human) (UniProt P48730). The description is as above. The note with it: compound 0.5 µM; ATP 10 µM.
With `O=C1NC(=O)/C(=C/c2ccc3c(c2)OC(F)(F)O3)S1`, the residual activity came out at 98.9%.

For the compound `N#CC(C#N)=C(N)/C(C#N)=C/c1ccc(O)cc1`, the residual activity is 98.7%.

Regarding `COc1cc2ncnc(Nc3cccc(Cl)c3)c2cc1OC`, the residual activity stood at 100%.

The next assay addresses RPS6KB2 (human) (UniProt Q9UBS0). The assay is described as above. The note with it: compound 0.5 µM; ATP 10 µM.
In the case of `O=C1NC(=O)/C(=C/c2ccc3c(c2)OC(F)(F)O3)S1`, the residual activity was 101%.

With `N#CC(C#N)=C(N)/C(C#N)=C/c1ccc(O)cc1`, the residual activity is 96.8%.

`COc1cc2ncnc(Nc3cccc(Cl)c3)c2cc1OC`: the residual activity was 105%.

The target in a further assay is PRKCH (human) (UniProt P24723). The description is as above. The note with it: compound 0.5 µM; ATP 10 µM.
`O=C1NC(=O)/C(=C/c2ccc3c(c2)OC(F)(F)O3)S1`: the residual activity came to 92.7%.

`N#CC(C#N)=C(N)/C(C#N)=C/c1ccc(O)cc1`: the residual activity came to 90.3%.

Consider `COc1cc2ncnc(Nc3cccc(Cl)c3)c2cc1OC`, for which the residual activity was 104%.

Another assay addresses MARK4 (human) (UniProt Q96L34). The description is as above. The following applies: compound 0.5 µM; ATP 10 µM.
Turning to `O=C1NC(=O)/C(=C/c2ccc3c(c2)OC(F)(F)O3)S1`, the residual activity was determined as 97.8%.

As for `N#CC(C#N)=C(N)/C(C#N)=C/c1ccc(O)cc1`, the residual activity turned out to be 94.3%.

Regarding `COc1cc2ncnc(Nc3cccc(Cl)c3)c2cc1OC`, the residual activity is 98.5%.

A further assay addresses DSTYK (human) (UniProt Q6XUX3). The description is as above. The following applies: compound 0.5 µM; ATP 10 µM.
In the case of `O=C1NC(=O)/C(=C/c2ccc3c(c2)OC(F)(F)O3)S1`, the residual activity was 89.3%.

Regarding `N#CC(C#N)=C(N)/C(C#N)=C/c1ccc(O)cc1`, the residual activity is 92.9%.

Consider `COc1cc2ncnc(Nc3cccc(Cl)c3)c2cc1OC`, for which the residual activity came to 90.8%.

The target in another assay is TYRO3 (human) (UniProt Q06418). The description is as above. The note with it: compound 0.5 µM; ATP 10 µM.
Take `O=C1NC(=O)/C(=C/c2ccc3c(c2)OC(F)(F)O3)S1`: the residual activity came to 99.6%.

On to `N#CC(C#N)=C(N)/C(C#N)=C/c1ccc(O)cc1`, for which the residual activity is 99.3%.

For the compound `COc1cc2ncnc(Nc3cccc(Cl)c3)c2cc1OC`, the residual activity was determined as 96.7%.

Another assay addresses PIM3 (human) (UniProt Q86V86). The assay is described as above. The following applies: compound 0.5 µM; ATP 10 µM.
As to `O=C1NC(=O)/C(=C/c2ccc3c(c2)OC(F)(F)O3)S1`, the residual activity is 39.8%.

On to `N#CC(C#N)=C(N)/C(C#N)=C/c1ccc(O)cc1`, for which the residual activity came out at 91.3%.

On to `COc1cc2ncnc(Nc3cccc(Cl)c3)c2cc1OC`, for which the residual activity stood at 99.4%.

In another assay the target is FER (human) (UniProt P16591). Described as above. The following applies: compound 0.5 µM; ATP 10 µM.
For the compound `O=C1NC(=O)/C(=C/c2ccc3c(c2)OC(F)(F)O3)S1`, the residual activity worked out at 97.2%.

As to `N#CC(C#N)=C(N)/C(C#N)=C/c1ccc(O)cc1`, the residual activity came to 91.1%.

Turning to `COc1cc2ncnc(Nc3cccc(Cl)c3)c2cc1OC`, the residual activity was found to be 77.1%.

Another assay deals with MATK (human) (UniProt P42679). The assay is described as above. The following applies: compound 0.5 µM; ATP 10 µM.
Sequence of MATK (human) (P42679 whole entry, looked up): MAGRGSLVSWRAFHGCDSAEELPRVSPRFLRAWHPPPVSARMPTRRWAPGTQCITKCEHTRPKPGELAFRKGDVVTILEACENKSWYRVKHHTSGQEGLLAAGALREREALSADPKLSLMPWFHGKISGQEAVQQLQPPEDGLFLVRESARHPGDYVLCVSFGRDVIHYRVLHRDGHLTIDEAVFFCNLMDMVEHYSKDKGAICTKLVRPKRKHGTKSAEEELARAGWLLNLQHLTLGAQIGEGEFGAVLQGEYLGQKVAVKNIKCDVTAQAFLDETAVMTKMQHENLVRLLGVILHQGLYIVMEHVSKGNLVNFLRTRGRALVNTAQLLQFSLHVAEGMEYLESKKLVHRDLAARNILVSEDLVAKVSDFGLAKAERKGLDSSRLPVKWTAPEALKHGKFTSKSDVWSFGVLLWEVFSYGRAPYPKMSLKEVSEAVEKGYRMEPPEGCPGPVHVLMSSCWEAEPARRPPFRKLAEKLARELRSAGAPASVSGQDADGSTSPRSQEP
Regarding `O=C1NC(=O)/C(=C/c2ccc3c(c2)OC(F)(F)O3)S1`, the residual activity was determined as 93.2%.

In the case of `N#CC(C#N)=C(N)/C(C#N)=C/c1ccc(O)cc1`, the residual activity came out at 92.5%.

As to `COc1cc2ncnc(Nc3cccc(Cl)c3)c2cc1OC`, the residual activity was 103%.

For the next assay, the target named is MARK3 (human) (UniProt P27448). Described as above. The note with it: compound 0.5 µM; ATP 10 µM.
Consider `O=C1NC(=O)/C(=C/c2ccc3c(c2)OC(F)(F)O3)S1`, for which the residual activity was 92.3%.

As to `N#CC(C#N)=C(N)/C(C#N)=C/c1ccc(O)cc1`, the residual activity was 96.5%.

As for `COc1cc2ncnc(Nc3cccc(Cl)c3)c2cc1OC`, the residual activity was 89.8%.

The target in another assay is EPHA8 (human) (UniProt P29322). The assay is described as above. The following applies: compound 0.5 µM; ATP 10 µM.
For `O=C1NC(=O)/C(=C/c2ccc3c(c2)OC(F)(F)O3)S1`, the residual activity is 93.8%.

On to `N#CC(C#N)=C(N)/C(C#N)=C/c1ccc(O)cc1`, for which the residual activity stood at 102%.

Consider `COc1cc2ncnc(Nc3cccc(Cl)c3)c2cc1OC`, for which the residual activity was 81.5%.

The target in another assay is HIPK2 (human) (UniProt Q9H2X6). Described as above. The note with it: compound 0.5 µM; ATP 10 µM.
Sequence of HIPK2 (human) (Q9H2X6 whole entry, looked up): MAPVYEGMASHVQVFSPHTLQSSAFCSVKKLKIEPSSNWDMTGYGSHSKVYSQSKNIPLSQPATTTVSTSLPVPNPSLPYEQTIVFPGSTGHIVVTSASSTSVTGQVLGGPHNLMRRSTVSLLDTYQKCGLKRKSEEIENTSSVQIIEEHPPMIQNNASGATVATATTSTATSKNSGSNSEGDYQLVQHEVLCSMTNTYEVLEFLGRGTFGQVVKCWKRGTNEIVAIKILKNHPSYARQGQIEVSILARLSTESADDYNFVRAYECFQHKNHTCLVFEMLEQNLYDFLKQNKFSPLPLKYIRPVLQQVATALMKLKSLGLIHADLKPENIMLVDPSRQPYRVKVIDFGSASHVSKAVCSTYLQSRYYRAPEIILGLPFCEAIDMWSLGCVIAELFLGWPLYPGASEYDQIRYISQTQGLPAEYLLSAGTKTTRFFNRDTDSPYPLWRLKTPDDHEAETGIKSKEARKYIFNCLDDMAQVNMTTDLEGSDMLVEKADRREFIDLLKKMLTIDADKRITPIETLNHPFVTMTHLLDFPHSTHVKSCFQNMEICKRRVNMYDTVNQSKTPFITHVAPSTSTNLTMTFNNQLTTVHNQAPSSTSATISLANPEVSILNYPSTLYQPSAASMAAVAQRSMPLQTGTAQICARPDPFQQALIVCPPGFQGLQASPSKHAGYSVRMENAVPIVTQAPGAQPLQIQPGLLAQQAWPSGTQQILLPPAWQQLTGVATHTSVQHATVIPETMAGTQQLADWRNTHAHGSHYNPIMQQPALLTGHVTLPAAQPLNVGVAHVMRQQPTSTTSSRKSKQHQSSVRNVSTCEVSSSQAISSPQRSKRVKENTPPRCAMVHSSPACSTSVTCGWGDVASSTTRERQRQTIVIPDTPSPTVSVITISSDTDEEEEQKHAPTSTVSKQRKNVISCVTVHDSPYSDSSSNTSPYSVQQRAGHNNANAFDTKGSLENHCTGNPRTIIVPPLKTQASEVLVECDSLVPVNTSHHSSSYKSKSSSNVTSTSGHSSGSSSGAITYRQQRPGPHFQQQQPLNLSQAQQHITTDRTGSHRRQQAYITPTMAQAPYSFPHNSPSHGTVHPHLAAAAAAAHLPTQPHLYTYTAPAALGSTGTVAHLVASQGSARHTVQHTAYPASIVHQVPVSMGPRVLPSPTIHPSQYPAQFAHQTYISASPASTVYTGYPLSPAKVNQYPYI
Regarding `O=C1NC(=O)/C(=C/c2ccc3c(c2)OC(F)(F)O3)S1`, the residual activity came out at 104%.

As to `N#CC(C#N)=C(N)/C(C#N)=C/c1ccc(O)cc1`, the residual activity was 102%.

On to `COc1cc2ncnc(Nc3cccc(Cl)c3)c2cc1OC`, for which the residual activity is 88.8%.

The next assay deals with CDK5 CDK5R1 p35 (human) (UniProt Q00535+Q15078). Described as above. The following applies: compound 0.5 µM; ATP 10 µM.
Turning to `O=C1NC(=O)/C(=C/c2ccc3c(c2)OC(F)(F)O3)S1`, the residual activity was found to be 103%.

For `N#CC(C#N)=C(N)/C(C#N)=C/c1ccc(O)cc1`, the residual activity was found to be 91.9%.

For the compound `COc1cc2ncnc(Nc3cccc(Cl)c3)c2cc1OC`, the residual activity stood at 91%.

The next assay addresses PRKCD (human) (UniProt Q05655). Described as above. The following applies: compound 0.5 µM; ATP 10 µM.
Turning to `O=C1NC(=O)/C(=C/c2ccc3c(c2)OC(F)(F)O3)S1`, the residual activity stood at 93.2%.

For `N#CC(C#N)=C(N)/C(C#N)=C/c1ccc(O)cc1`, the residual activity came out at 93.7%.

Take `COc1cc2ncnc(Nc3cccc(Cl)c3)c2cc1OC`: the residual activity worked out at 86.4%.

Values taken from the kinase profiling compilation of Christmann-Franck et al. (2016).
